Data set [1] concerns the target T1, human M2R (Homo sapiens, UniProt P08172).
T1 construct: host or cells: HEK293 (CRL-1573, ATCC), transient
T1 sequence (P08172 1-466): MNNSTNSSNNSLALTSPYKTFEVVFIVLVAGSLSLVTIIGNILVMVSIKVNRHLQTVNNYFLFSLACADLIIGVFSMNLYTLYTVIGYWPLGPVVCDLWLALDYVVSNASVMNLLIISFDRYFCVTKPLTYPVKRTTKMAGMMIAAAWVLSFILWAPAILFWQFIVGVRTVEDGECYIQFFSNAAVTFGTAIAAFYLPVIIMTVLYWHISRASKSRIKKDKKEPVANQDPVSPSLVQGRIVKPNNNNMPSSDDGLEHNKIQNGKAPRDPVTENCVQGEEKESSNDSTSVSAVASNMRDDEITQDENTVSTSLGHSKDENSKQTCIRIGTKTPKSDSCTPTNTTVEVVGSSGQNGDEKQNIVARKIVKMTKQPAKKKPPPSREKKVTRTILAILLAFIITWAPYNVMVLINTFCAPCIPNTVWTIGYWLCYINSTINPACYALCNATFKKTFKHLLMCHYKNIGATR
Nature of the data set: [3H]Scopolamine radioligand competition binding at M2R. As for the experimental part:
(§1) Radioligand Competition Binding: Radioligand competition binding assays were conducted using membranes collected from transiently transfected HEK293 cells (P<20 from a procured stock, CRL-1573, ATCC, Manassas, Va., USA) as previously described (Chen, Y., et al. Drug Test Anal 11, 990-998). Briefly, cells ˜90% confluent in 10 cm plates were transfected with 5 μg human M1R, M2R, M3R, M4R or […] cDNA (cDNA resource center, Bloomsburg, Pa., USA) using a lipid-based method (LipoD293 reagent, SignaGen Laboratories, Rockville, Md., USA). Membranes were collected by centrifugation about 48 hours later and stored at −80° C. until used. […] After a 90-minute incubation at room temperature on a shaker, contents from the plates were rapidly filtered through GF/B fiberglass filter mats, pre-soaked with ice cold 50 mM Tris buffer (pH 7.4), using a Microbeta Filtermat-96 cell harvester (Perkin Elmer, Waltham, Mass., USA). Approximately 200 mL of ice cold, 50 mM Tris buffer was then vacuumed through filter mats to wash away unbound radioligand. Filter mats were dried on a hot plate and soaked in Betaplate (Perkin Elmer, Waltham, Mass., USA) scintillation fluid in plastic bags. Bags were sealed and placed in cassettes. Radioactivity was measured in a Microbeta2 Microplate Counter (Perkin Elmer, Waltham, Mass., USA), and counts per minute corresponding to each well on the plates were recorded. For full dose-response competition binding assays, increasing half-log unit concentrations of five unsubstituted PSCs were tested at M2Rs and M1Rs, with the same procedures described above.
(§2) Curve Fitting and Statistical Analyses: All data were analyzed by GraphPad 8.3.0 (San Diego, Calif., USA). Ki values were determined from data fit to both one- and two-site models. […] EC50 and IC50 values from functional assays were determined from data fit to the log(agonist) vs. response (three parameters) or log(inhibitor) vs. response (three parameters) model, respectively. Kb values were calculated from IC50 values using the Cheng-Prusoff equation with modification (see, e.g., Leff, P., and Dougall, I. G. (1993) Trends Pharmacol Sci 14, 110-112): Kb=IC50/((2+([A]/[A50])nH)1/nH−1)
In general terms: Displacement assays read how much labelled ligand stays bound in the presence of the test substance.

The target of data set [2] is T2, human M5R (Homo sapiens, UniProt P08912).
T2 construct: host or cells: HEK293 (CRL-1573, ATCC), transient
T2 sequence (P08912 1-532): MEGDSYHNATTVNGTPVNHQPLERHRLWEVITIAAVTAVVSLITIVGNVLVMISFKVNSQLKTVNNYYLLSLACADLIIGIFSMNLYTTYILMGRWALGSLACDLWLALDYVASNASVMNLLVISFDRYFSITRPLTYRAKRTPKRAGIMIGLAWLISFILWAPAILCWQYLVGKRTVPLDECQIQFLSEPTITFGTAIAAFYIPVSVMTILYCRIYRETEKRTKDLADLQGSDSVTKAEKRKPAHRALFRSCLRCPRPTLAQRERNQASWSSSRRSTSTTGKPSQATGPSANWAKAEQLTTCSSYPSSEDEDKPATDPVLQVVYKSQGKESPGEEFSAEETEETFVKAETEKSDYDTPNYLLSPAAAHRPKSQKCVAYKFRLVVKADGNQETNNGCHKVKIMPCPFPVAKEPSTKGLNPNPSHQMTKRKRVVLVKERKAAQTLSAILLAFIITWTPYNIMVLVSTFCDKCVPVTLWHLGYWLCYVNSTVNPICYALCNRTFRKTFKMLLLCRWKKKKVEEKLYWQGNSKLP
Kind of data set: [3H]Scopolamine radioligand competition binding at M5R. As to the method: as §1, §2

The conditions of data set [3]: 42 cases of intoxication, Beck et al. 2016; cited from earlier work.
For data set [4], the target named is T3, human M4R (Homo sapiens, UniProt P08173).
T3 construct: host or cells: HEK293 (CRL-1573, ATCC), transient
T3 sequence (P08173 1-479): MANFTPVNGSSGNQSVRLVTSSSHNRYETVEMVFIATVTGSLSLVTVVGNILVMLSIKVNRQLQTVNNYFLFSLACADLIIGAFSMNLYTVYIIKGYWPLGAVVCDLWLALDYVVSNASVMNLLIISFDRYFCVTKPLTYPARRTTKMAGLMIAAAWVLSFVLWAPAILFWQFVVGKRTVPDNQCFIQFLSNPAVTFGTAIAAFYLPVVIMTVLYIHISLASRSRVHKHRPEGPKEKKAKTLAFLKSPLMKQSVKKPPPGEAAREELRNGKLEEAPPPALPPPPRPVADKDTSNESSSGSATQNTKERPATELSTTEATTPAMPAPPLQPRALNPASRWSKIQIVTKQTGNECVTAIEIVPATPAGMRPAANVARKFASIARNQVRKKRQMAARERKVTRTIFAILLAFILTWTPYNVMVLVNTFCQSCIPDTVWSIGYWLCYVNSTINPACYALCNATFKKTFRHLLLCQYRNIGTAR
Nature of the data set: [3H]Scopolamine radioligand competition binding at M4R. As to the method:
as §1, §2

Data set [5] concerns the target T4, human M3R (Homo sapiens, UniProt P20309).
T4 construct: host or cells: HEK293 (CRL-1573, ATCC), transient
Kind of data set: biochemical. The class given is binding. Conditions: estimate from 1 and 10 μM concentrations (N = 2); N.C. = <5% displacement of radioligand at 10 μM; read-out: estimated pKi at M3R (converted). As for the experimental part:
as §1, §2

Data set [6] has as its target T5, human M1R (Homo sapiens, UniProt P11229).
T5 construct: host or cells: HEK293 (CRL-1573, ATCC), transient
T5 sequence (P11229 1-460): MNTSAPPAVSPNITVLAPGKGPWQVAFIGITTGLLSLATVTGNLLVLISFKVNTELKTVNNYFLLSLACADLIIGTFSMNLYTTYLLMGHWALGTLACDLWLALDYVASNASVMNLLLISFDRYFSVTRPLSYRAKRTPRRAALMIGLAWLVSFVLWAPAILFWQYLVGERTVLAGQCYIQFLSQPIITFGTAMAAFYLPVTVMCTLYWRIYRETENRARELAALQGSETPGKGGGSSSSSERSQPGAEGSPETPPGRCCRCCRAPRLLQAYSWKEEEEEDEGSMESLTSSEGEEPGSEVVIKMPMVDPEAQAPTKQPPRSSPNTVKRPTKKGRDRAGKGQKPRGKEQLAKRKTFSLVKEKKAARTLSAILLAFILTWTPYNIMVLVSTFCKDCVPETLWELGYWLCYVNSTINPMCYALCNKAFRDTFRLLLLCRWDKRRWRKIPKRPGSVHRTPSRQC
Nature of the data set: biochemical. The class given is binding. Conditions: full dose-response [3H]Scopolamine competition binding; α-PPP and α-PBP interpolated; read-out: pKi at M1R (converted). As to the method:
as §1, §2

T4 sequence (P20309 whole entry): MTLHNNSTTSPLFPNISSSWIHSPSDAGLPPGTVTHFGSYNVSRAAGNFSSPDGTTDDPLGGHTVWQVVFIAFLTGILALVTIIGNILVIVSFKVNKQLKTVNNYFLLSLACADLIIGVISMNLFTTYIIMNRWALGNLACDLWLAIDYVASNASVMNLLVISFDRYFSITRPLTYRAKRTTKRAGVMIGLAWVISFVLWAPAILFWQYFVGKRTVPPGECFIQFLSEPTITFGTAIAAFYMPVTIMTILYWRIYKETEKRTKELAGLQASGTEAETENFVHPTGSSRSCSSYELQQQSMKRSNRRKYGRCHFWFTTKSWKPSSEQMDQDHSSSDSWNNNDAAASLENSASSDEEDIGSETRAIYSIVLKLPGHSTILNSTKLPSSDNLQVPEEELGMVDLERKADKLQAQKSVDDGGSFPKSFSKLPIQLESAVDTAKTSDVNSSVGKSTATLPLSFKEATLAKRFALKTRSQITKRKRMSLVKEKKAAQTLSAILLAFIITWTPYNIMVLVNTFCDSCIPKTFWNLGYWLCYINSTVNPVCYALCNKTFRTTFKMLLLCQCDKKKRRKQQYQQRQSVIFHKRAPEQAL

Take `CCCC(C(=O)c1ccccc1)N1CCCC1` (stereo not drawn) [α-PVP, α-Pyrrolidinopentiophenone]: the “fold increase in M2R affinity compared to α-PBP” value in data set [1] is 49 fold. The “fold increase in M2R affinity compared to α-PPP” value in data set [1] is given as 89 fold. Also, the Ki was 824 nM in data set [1] (Ki at M2Rs, full dose-response [3H]Scopolamine competition binding); 4.17 µM in data set [2]; 8.13 µM in data set [4]; 6.03 µM in data set [5]; 5.13 µM in data set [6]. The “patients presenting with tachycardia” value in data set [3] is given as 80%.

(Values after patent US11912705B2, “Cathinone derivatives, pharmaceutical formulations, and methods” (The Corporation of Mercer University, priority 2020, dated 2024).)
